The NIST ThermoML archive (doi:10.1016/j.jct.2013.10.016)
Numbers after ± are expanded uncertainties.

Test: wn = mass fraction of the nth substance listed
Details: Wilhelmy plate method

Row | surface tension liquid-gas (293.2 K, w1 = 0.2) [mN/m] | surface tension liquid-gas (293.2 K, w1 = 0.25) [mN/m] | surface tension liquid-gas (293.2 K, w1 = 0.3) [mN/m] | surface tension liquid-gas (303.2 K, w1 = 0.2) [mN/m] | surface tension liquid-gas (303.2 K, w1 = 0.25) [mN/m] | surface tension liquid-gas (303.2 K, w1 = 0.3) [mN/m] | surface tension liquid-gas (313.2 K, w1 = 0.2) [mN/m] | surface tension liquid-gas (313.2 K, w1 = 0.25) [mN/m] | surface tension liquid-gas (313.2 K, w1 = 0.3) [mN/m] | surface tension liquid-gas (323.2 K, w1 = 0.2) [mN/m] | surface tension liquid-gas (323.2 K, w1 = 0.25) [mN/m] | surface tension liquid-gas (323.2 K, w1 = 0.3) [mN/m] | SMILES
1 | 62.6 ± 2 | 61.2 ± 2 | 60.3 ± 2 | 61.8 ± 2 | 60.6 ± 2 | 59.5 ± 2 | 60.2 ± 2 | 59.2 ± 2 | 58 ± 2 | 58.7 ± 2 | 57.7 ± 2 | 56.5 ± 2 | NCCO [2-aminoethan-1-ol] + O
2 | 65.1 ± 2 | 64.6 ± 2 | 62.8 ± 2 | 64.4 ± 2 | 62.7 ± 2 | 61.3 ± 2 | 63.9 ± 2 | 61.8 ± 2 | 60.4 ± 2 | 61.8 ± 2 | 59.6 ± 2 | 58.2 ± 2 | OCCNCCO [diethanolamine] + O
